Experimental data reported in patent publication US6436448B1, “Method for the treatment of lymphedema using guaifenesin” (Sky BioHealth Solutions, Inc., priority 2001, dated 2002).

Key:
[1] = herbal medicines, background statement; cited from earlier work
[2] = Inventor's clinical observation of patients with lymphedema / fluid accumulation treated orally; type: in vivo
Text: The inventor disagrees with the basic assumption and hypothesis on the inner working of guaifenesin. The inventor believes that guaifenesin's activity is its ability to break down undigested protein, and antigen-antibody complexed protein within the tissues and lymphatic nodes and vessels to reduce fluid accumulation and therefore reduce lymphedema. Guaifenesin is an expectorate and it thins out proteinaceous secretions from our lungs by directly and/or indirectly through stimulating macrophages to breaking the proteins into its amino acids components. The inventor believes that guaifenesin break down the proteins within the blood stream, tissues, and the lymphatic system. By maintaining a high level of guaifenesin within the blood stream, the “foreign” proteins within the tissue, antigen-antibody protein complexes within the lymph nodes will be broken down allowing the broken down amino acid particles to diffuse across the tissue into the lymphatic drainage. With this fluid switch from the lymphatic to the systemic circulation diuresis ensues without affecting the potassium metabolism within the kidney. The inventor has also observed lymphedema that occurs in non-fibromyalgia patients that responds well to guaifenesin therapy resulting in reduction of the swelling. […] These observations confirm the hypothesis that guaifenesin works on the “foreign” protein or antigen-antibodies protein complexes within the tissues and lymphatic system. With different size “foreign” protein and antigen-antibody protein complexes, guaifenesin's action on these proteins in various part of the body will proceed with different rate resulting in different rate of swelling reduction in different part of the bodies. Many of these patients, however, are diagnosed by a physician to have a cardiogenic etiology of edema and are typically treated with diuretics of various types. Cardiogenic edema should respond to a diuretic within […]. The inventor has observed patients being on diuretics for as long as a year with no results on the lymphedema. In testing this hypothesis, the inventor has used guaifenesin on over several hundred patients in varying dosages. […] Guaifenesin is also available in sustained-release version. The long-acting version is typically available at 600 mg and is designed to be taken two or three times a day. […] Other combinations of various dosage for ms may be used with various patients to improve results. […] While the inventor has only administered guaifenesin to patients orally, guaifenesin and its analogs can be formulated using known methods to prepare pharmaceutically useful compositions by combining guaifenesin with a pharmaceutically acceptable carriers and adapted to be administered by injection, transdermally, transmucosally or by any other means of drug delivery vehicle. Guafenesin may also be administered to a patient in a patch form or in a cream, ointment, or in a nasal or lung spray, or in a suppository.

Compound | swelling of lymphedema [1] | results with combination of short acting and long acting versions ([2]; combination of short acting and long acting versions) | painful and swollen lymph nodes ([2]; fibromyalgia patients on guaifenesin) | results with long-acting (sustained-release) version alone ([2]; long-acting version, typically 600 mg two or three times a day) | response of lymphedema (reduction of the swelling) ([2]; non-fibromyalgia patients, guaifenesin therapy) | accumulated fluid ([2]; over several hundred patients, oral, about 600 mg to about 4000 mg per day)
O=c1ccc2ccccc2o1 [coumarin] | decrease some of the swelling associated with lymphedema |  |  |  |  | 
COc1ccccc1OCC(O)CO (stereo not drawn) [guaifenesin] |  | improves the results | reduction of the painful and swollen lymph nodes | may not work well in some patients | responds well | reduction of accumulated fluid
